Earlier results as cited in patent US20100167989A1, “ISOPROPOXYPHENYLMETHYL INHIBITORS OF SGLT2” (AUSPEX PHARMACEUTICALS, INC., priority 2008, published 2010).

What was measured:
mice = settings: orally administered
rats = settings: orally administered

CCOC(=O)OC[C@H]1O[C@@H](Oc2nn(C(C)C)c(C)c2Cc2ccc(OC(C)C)cc2)[C@H](O)[C@@H](O)[C@@H]1O [remogliflozin etabonate, 4-[(4-isopropoxyphenyl)-methyl]-1-isopropyl-5-methyl-1H-pyrazol-3-yl-D-glucopyranoside]
urinary glucose excretion (mice): increased urinary glucose excretion in a dose-dependent manner
urinary glucose excretion (rats): increased urinary glucose excretion in a dose-dependent manner
